Source: patent publication EP0204215B1, “2-[(1H-benzimidazol-2-ylsulfinyl)methyl]-benzenamines” (G.D. Searle & Co., priority 1985, dated 1986)

How the values were obtained:
(H⁺+K⁺)-ATPase = biological target: T1, (H⁺+K⁺)-ATPase (Canis lupus familiaris, UniProt P50996); test: Inhibition of (H⁺+K⁺)-ATPase from canine gastric mucosa (release of inorganic phosphate); type: biochemical; settings: microsomes from canine gastric mucosa, pH 6.0, preincubated 30 min at 37°; read-out: (H⁺+K⁺)-ATPase IC₅₀
T1 construct: The microsomes retained at the 15%-30% sucrose interface, after centrifugation at 250,000xg for sixty minutes, were used as the source of (H⁺+K⁺)-ATPase; from tissue; host or cells: gastric glandular mucosa of mongrel dogs (microsomal fraction, sucrose step gradient, lyophilized)
Description: Mongrel dogs weighing 15 to 25 kilograms were fasted for twenty-four hours, with water provided ad libitum. The animals were anesthetized with pentobarbital and the stomachs were removed. Subsequent tissue manipulations and subcellular fractionations were performed at 0 to 4°C. After the stomachs were cut open and rinsed with tap water, the antral and cardiac regions were removed and the remaining tissue was rinsed three times in saline. The glandular mucosa was removed mechanically, chopped finely in a medium containing 10 mM Tris hydrochloride (pH 7.4) and 250 mM sucrose, and homogenized. The homogenate was centrifuged at 20,000xg for twenty minutes and the pellet discarded. The supernatant was then centrifuged at 150,000xg for ninety minutes and the supernatant discarded. The pellet was resuspended in the Tris-HCl/sucrose medium by homogenization. Part (2 ml) of the resultant microsomal suspension was layered onto a step gradient consisting of 9 ml of 15% sucrose above 12 ml of 30% sucrose, each sucrose solution being buffered with 10 mM Tris hydrochloride (pH 7.4) containing 0.01% sodium aside. The microsomes retained at the 15%-30% sucrose interface, after centrifugation at 250,000xg for sixty minutes, were used as the source of (H⁺+K⁺)-ATPase. Microsomal preparations were lyophilized, a process that assured potassium ion permiability, and stored at -10° until used.
(H⁺+K⁺)-ATPase activity for each test compound was determined, in duplicate, by measuring the release of inorganic phosphate, which was assayed according to the method of J. ChandraRajan and L. Klein. Anal. Biochem., 72, 407-412 (1976). The (H⁺+K⁺)-ATPase assay medium consisted of 20 mM Mes-Tris (pH 6.0), 5 mM magnesium chloride, 25 mM sucrose, and 4mM Tris-ATP with or without 20 mM potassium chloride in a total volume of 2 ml. Microsomal suspensions (20 to 60 mcl, containing about 25 mcg protein) were added to the assay medium, without Tris-ATP, and then preincubated with a test compound for thirty minutes at 37°. The assay was initiated by adding Tris-ATP and the mixture was incubated another thirty minutes at 37°. A 200-mcl aliquot of the assay mixture was then added to 1.4 ml of a solution consisting of 0.1 M sodium acetate (pH 4.0) and 10% sodium dodecylsulfate, followed by the addition of 200 mcl each of 1% ammonium molybdate and 1% ascorbic acid. At least fifteen minutes later, the optical absorbance at 870 nm (which was proportional to inorganic phosphate concentration up to 100 nmoles per tube, as determined by a standard curve) was obtained. Enzyme activity was linear with incubation time.
(H⁺+K⁺)-ATPase activity is represented by the difference between the measured activities in the presence of potassium ion (K⁺-stimulated) and in the absence of potassium ion (basal). The concentration of a test compound required to inhibit 50% of the (H⁺+K⁺)-ATPase activity (i.e., the IC₅₀) was determined at least in duplicate using linear regression analysis of results obtained for three different compound concentrations ranging from 0.1 mcM to 0.2 mM.

Gastric Acid Secretion [1] = test: Inhibition of gastric acid secretion in gastric fistula beagle dogs (histamine-stimulated); type: in vivo; settings: four-hour histamine stimulation; for Gastric-Fistula Beagle % Inhibition: 3 mg/kg dose; for inhibition in vivo at 3 mg/kg: Canis lupus familiaris, 4 h
Description: Adult female beagle dogs weighing 6 to 11 kilograms obtained from Laboratory Research Enterprises (Kalamazoo, Mich.) or from Hazelton Research Animals (Cumberland, Va.) were surgically implanted with a simple Thomas-type gastric cannula. After recovery from surgery, the dogs were trained to stand quietly, fully conscious, in Pavlov-type dog restraining slings and were acclimated to intravenous infusion of histamine dihydrochloride. During the course of these studies, no dog was used more than once a week. All dogs were deprived of food, but not water, for 18 hours prior to each assay. Each dog was initially infused with 0.15 M sodium chloride solution at a constant rate of […]. The volume of gastric secretions, collected in plastic bottles affixed to the cannula, were measured to the nearest 0.1 ml at 30 minute intervals. One of the following protocols was followed, depending on the route chosen for administration of test compound.
Intravenous dosing: Following a 30-minute basal secretion period, test compounds were administered intravenously (i.v.). At the end of an additional 30 minute period, the saline infusion was replaced with histamine dihydrochloride in saline administered at a rate 15 mcg per kilogram of body weight per hour. Histamine stimulation was maintained for a maximum of four hours during which time gastric secretions were collected every 30 minutes. The pH and titratable acidity were determined for samples from each collection period.
Intragastric dosing: Following a 30-minute basal secretion period, the collection bottles were removed, dosing plugs were inserted, and test compounds were administered intragastrically (i.g.). At the end of a 30-minute drug absorption period, the stomachs were emptied, the collection bottles were reattached, and collections were resumed at 30-minute intervals. Simultaneously, the saline infusion was replaced with a continuous intravenous infusion of histamine dihydrochloride in saline administered for four hours at a rate 15 mcg per kilogram of body weight per hour.
Intraduodenal dosing: Dogs were also equipped with duodenal cannulas for intraduodenal (i.d.) administration of test compounds. Dosing was otherwise performed as described for intragastric dosing.
Data from each protocol were analyzed for three gastric sample variables: volume of gastric juice, acid concentration, and total acid output. Percent inhibition for each four-hour experimental period was determined for each parameter by comparison with 3 to 4 controls in which only food was given. Estimates of ED₅₀'s were determined from dose response curves.

Gastric Acid Secretion [2] = test: Inhibition of gastric acid secretion in meal-stimulated Pavlov pouch dog; type: in vivo, beagle dogs; settings: four-hour period
Description: Adult female beagle dogs weighing 6 to 10 kilograms were obtained from Laboratory Research Enterprises (Kalamazoo, Mich.) or from Hazelton Research Animals (Cumberland, Va.). Surgical implantation of a Thomas-type gastric cannula into an innervated Pavlov pouch of each dog was performed by the method reported by L. Burrows et al., J. Surgical Res., 4, 147-150 (1964). After recovery from surgery, the dogs were trained to stand quietly, fully conscious, in Pavlov-type dog restraining slings. All dogs were deprived of food, but not water, for 24 hours prior to each assay. Basal acid secretion was measured by collecting from the cannulas for 30 minutes before dosing with a test compound. Solutions of the test compounds in iso-osmotic phosphate buffer (pH 7.4) were given either intravenously or directly into the Pavlov pouch. After 30 minutes the pouch was drained. The dogs were then fed 320 grams of dog food and gastric acid secretions were collected each half hour for four hours. Controls were determined in the same way except that only food (i.e., no test compound) was administered.
Data were analyzed for three different variables: volume of gastric juice, acid concentration, and total acid output. Percent inhibition for the four-hour experimental period was determined for each parameter by comparison with 3 to 4 controls. Estimates of ED₅₀ were determined from dose response curves.

T1 sequence (P50996 whole entry): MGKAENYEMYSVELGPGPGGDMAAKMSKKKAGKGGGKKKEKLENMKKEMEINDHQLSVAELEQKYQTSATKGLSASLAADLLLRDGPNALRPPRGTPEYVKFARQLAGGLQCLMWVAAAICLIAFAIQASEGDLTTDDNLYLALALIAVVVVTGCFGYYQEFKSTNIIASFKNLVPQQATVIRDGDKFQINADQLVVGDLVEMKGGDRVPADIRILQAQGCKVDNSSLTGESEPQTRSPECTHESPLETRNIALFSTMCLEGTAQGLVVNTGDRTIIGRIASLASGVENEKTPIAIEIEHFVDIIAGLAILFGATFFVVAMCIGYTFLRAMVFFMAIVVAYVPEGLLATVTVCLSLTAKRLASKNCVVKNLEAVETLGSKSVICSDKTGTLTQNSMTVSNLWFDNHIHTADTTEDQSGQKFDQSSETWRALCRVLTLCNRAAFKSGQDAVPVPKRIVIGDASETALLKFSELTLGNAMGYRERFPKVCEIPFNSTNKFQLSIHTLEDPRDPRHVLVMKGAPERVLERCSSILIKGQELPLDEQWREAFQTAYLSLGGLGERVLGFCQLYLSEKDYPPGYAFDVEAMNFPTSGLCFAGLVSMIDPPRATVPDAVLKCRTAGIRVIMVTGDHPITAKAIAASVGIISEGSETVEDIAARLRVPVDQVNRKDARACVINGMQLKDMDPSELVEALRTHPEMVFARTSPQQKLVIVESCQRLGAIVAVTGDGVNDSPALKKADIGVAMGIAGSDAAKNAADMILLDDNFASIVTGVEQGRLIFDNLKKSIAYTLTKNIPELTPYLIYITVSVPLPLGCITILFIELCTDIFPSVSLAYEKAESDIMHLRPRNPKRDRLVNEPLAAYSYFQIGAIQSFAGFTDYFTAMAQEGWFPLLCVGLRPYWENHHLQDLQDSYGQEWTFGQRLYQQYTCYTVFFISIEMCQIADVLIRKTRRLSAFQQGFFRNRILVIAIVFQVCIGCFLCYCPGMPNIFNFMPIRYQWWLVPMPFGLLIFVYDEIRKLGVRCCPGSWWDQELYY
T1 sequence (P33704 whole entry partner): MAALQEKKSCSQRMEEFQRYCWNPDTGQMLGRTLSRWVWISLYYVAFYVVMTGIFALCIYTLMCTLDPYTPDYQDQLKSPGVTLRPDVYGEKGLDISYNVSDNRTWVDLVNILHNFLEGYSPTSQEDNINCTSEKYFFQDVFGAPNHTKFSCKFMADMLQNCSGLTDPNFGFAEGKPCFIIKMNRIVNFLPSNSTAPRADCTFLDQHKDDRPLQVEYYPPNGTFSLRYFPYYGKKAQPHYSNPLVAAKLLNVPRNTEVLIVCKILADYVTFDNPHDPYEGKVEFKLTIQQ

| IC50 ((H⁺+K⁺)-ATPase) | Compound | Gastric-Fistula Beagle % Inhibition (Gastric Acid Secretion [1]; i.d.) | further results |
| --- | --- | --- | --- |
| 1.5 µM | Cc1cc(N)c(C[S+]([O-])c2nc3ccccc3[nH]2)c(C)c1C (stereo not drawn) [Example 30, 2-[(1H-benzimidazol-2-ylsulfinyl)methyl]-3,4,5-trimethylbenzenamine hemihydrate] |  |  |
| 5.4 µM | 2-[[[(5-(trifluoromethyl)-1H-benzimidazol-2-yl]thio]methyl]benzenamine [Example 20] | 72 i.d. % | Gastric-Fistula Beagle % Inhibition (Gastric Acid Secretion [1]; i.v.): 96 i.v. % |
| 4.4 µM | Cc1ccc(CSc2nc3ccccc3[nH]2)c(N)c1C [Example 22, 2-[(1H-benzimidazol-2-ylthio)methyl]-5,6-dimethylbenzenamine] |  | inhibition in vivo at 3 mg/kg (Gastric Acid Secretion [1]; intraduodenal, i.d.): 37% |
|  | Cc1cccc(C[S+]([O-])c2nc3ccccc3[nH]2)c1N (stereo not drawn) [Example 13, 2-[(1H-benzimidazol-2-ylsulfinyl)methyl]-6-methylbenzenamine] | 44 i.d. % | Pavlov-Pouch Dog % Inhibition (Gastric Acid Secretion [2]; 3 mg/kg): 43 (3 mg/kg) % |
| 0.82 µM | CCOc1ccc2[nH]c(SCc3cc(C)ccc3N)nc2c1 [Example 26, 2-[[(5-ethoxy-1H-benzimidazol-2-yl)thio]-methyl]-4-methylbenzenamine] |  |  |
|  | COc1ccc2[nH]c([S+]([O-])Cc3ccccc3N)nc2c1 (stereo not drawn) [Example 5, 2-[[(5-methoxy-1H-benzimidazol-2-yl)sulfinyl]methyl]benzenamine] |  | Pavlov-Pouch Dog % Inhibition (Gastric Acid Secretion [2]; 3 mg/kg): 19 (3 mg/kg) %; Pavlov-Pouch Dog % Inhibition (Gastric Acid Secretion [2]; 10 mg/kg): 54 (10 mg/kg) % |
| 5.3 µM | 2-[[[(5-(trifluoromethy)1-1H-benzimidazol-2-yl]thio]methyl]-3,6-dimethylbenzenamine [Example 28] |  |  |
| 0.85 µM | COc1ccc2[nH]c(SCc3cc(C)ccc3N)nc2c1 [Example 16, 2-[[(5-methoxy-1H-benzimidazol-2-yl)thio]methyl]-4-methylbenzenamine] |  |  |
| 4.2 µM | COc1ccc2[nH]c(SCc3cccc(C)c3N)nc2c1 [Example 18, 2-[[(5-methoxy-1H-benzimidazol-2-yl)thio]methyl]-6-methylbenzenamine] |  | inhibition in vivo at 3 mg/kg (Gastric Acid Secretion [1]; intraduodenal, i.d.): 66%; inhibition in vivo at 3 mg/kg (Gastric Acid Secretion [1]; iv): 91%; inhibition in vivo at 3 mg/kg (Gastric Acid Secretion [1]; po, i.g.): 43%; Pavlov-Pouch Dog % Inhibition (Gastric Acid Secretion [2]; 3 mg/kg): 79 (3mg/kg) % |
|  | Nc1ccccc1C[S+]([O-])c1nc2ccccc2[nH]1 (stereo not drawn) [Example 3, 2-[(1H-benzimidazol-2-ylsulfinyl)methyl] benzenamine hemihydrate] | 53 i.d. % | Pavlov-Pouch Dog % Inhibition (Gastric Acid Secretion [2]; 1 mg/kg): 20 (1 mg/kg) %; Pavlov-Pouch Dog % Inhibition (Gastric Acid Secretion [2]; 10 mg/kg): 87 (10 mg/kg) % |
|  | Cc1ccc(N)c(C[S+]([O-])c2nc3ccccc3[nH]2)c1 (stereo not drawn) [Example 11, 2-[(1H-benzimidazol-2-ylsulfinyl)methyl]-4-methylbenzenamine] |  | Gastric-Fistula Beagle % Inhibition (Gastric Acid Secretion [1]; i.v.): 67 i.v. % |
| 16 µM | COc1ccc2[nH]c([S+]([O-])Cc3c(N)cc(C)c(OC)c3C)nc2c1 (stereo not drawn) [Example 31, 2-[[(5-methoxy-1H-benzimidazol-2-yl)sulfinyl]methyl]-4-methoxy-3,5-dimethylbenzenamine] | 31 i.d. % |  |
